From patent US5589485A, “Dorrigocin antitumor agents” (priority 1995, dated 1996)
Converted amounts (≈) assume the structure as drawn. Read-outs that look alike come from different tables or passages of the source.

Legend:
A. fumigatus ATCC 26430 = assay: In vitro antifungal activity, agar dilution MIC; format: cell-based; settings: Aspergillus fumigatus
Procedure: (§1) Minimal inhibitory concentrations (MICs) were determined by an agar dilution method. The test compounds were serially diluted in MeOH and 0.2 ml portions were mixed with 20 ml of molten, cooled Sabouraud dextrose agar (Difco). Yeast cell inoculum was prepared by growing cultures on Sabouraud dextrose agar for 18 hours at 32° C. and suspending the cells in phosphate buffered saline. Filamentous fungi were grown under the same conditions for 4 days to obtain spores. The inoculum level for all cultures was adjusted to 10^4 cells using a Petroff-Hauser cell counter. The glutarimide antifungal compound cycloheximide was used as a control. Inoculated test plates were incubated at 32° C. and examined after 20 hours.

[1] = tested on: Candida albicans ATCC 10231; assay: In vitro antifungal activity, agar dilution MIC; format: cell-based
Procedure: as §1

[2] = tested on: Candida tropicalis NRRL-Y-112; assay: In vitro antifungal activity, agar dilution MIC; format: cell-based
Procedure: as §1

Candida albicans 579A = assay: In vitro antifungal activity, agar dilution MIC; format: cell-based
Procedure: as §1

A. flavus NRRL 6541 = assay: In vitro antifungal activity, agar dilution MIC; format: cell-based; settings: Aspergillus flavus
Procedure: as §1

[3] = tested on: Aspergillus niger ATCC 16404; assay: In vitro antifungal activity, agar dilution MIC; format: cell-based
Procedure: as §1

[4] = tested on: Fusarium moniliforme AARC 0397; assay: In vitro antifungal activity, agar dilution MIC; format: cell-based; settings: Fusarium verticillioides
Procedure: as §1

[5] = tested on: Saccharomyces cereviseae GS1-36; assay: In vitro antifungal activity, agar dilution MIC; format: cell-based
Procedure: as §1

[6] = tested on: A. parasiticus NRRL 13539; assay: In vitro antifungal activity, agar dilution MIC; format: cell-based; settings: Aspergillus parasiticus
Procedure: as §1

[7] = tested on: Candida albicans ATCC 38247; assay: In vitro antifungal activity, agar dilution MIC; format: cell-based
Procedure: as §1

F. solani AARC 0353 = assay: In vitro antifungal activity, agar dilution MIC; format: cell-based; settings: Fusarium solani
Procedure: as §1

[8] = tested on: Torulopsis glabrata ATCC 15545; assay: In vitro antifungal activity, agar dilution MIC; format: cell-based; settings: Nakaseomyces glabratus
Procedure: as §1

Solubility = format: physicochemical
[9] = tested on: K-ras-transformed NIH/3T3 mouse fibroblasts; assay: In vitro antitumor activity: transformed foci / morphology reversion; format: cell-based; settings: for activity at 0.4 µg/mL: compound dose 0.4 μg/ml; for morphology reversion of transformed cells: microscopic examination
Procedure: Transformed cells are typically rounded when the mutant ras gene is expressed. Normal cells, on the other hand, are flat and adhere to the bottom of a tissue culture plate.
Normal and transformed NIH/3T3 cells were cultured in Dulbecco's modified Eagle medium containing 10% fetal bovine serum, and gentamicin 50 μg/ml at 37° C. in 5% CO2. Ras transformants also contained […] G418. To test the effect of Dorrigocins, 2×10^4 cells were added to 24 well microtiter plates and incubated for 24 hours at 37° C. when the cells had uniformly adhered to the microtiter tray, various concentrations of Dorrigocin A and B dissolved in DMSO, were added and the plates incubated at 37° C. for an additional 48 hours. Cellular morphology was examined microscopically and the average number of transformed foci per field was determined by counting at least 6 separate fields. These foci represent transformed cells that were unaffected by the addition of compound.

[10] = ATCC26430, Sabouraud dextrose agar, 32° C., 20 hours, read-out: MIC
[11] = ATCC10231, Sabouraud dextrose agar, 32° C., 20 hours, read-out: MIC
[12] = NRRLY112, Sabouraud dextrose agar, 32° C., 20 hours, read-out: MIC
[13] = Sabouraud dextrose agar, 32° C., 20 hours, read-out: MIC
[14] = NRRL6541, Sabouraud dextrose agar, 32° C., 20 hours, read-out: MIC
[15] = ATCC16404, Sabouraud dextrose agar, 32° C., 20 hours, read-out: MIC
[16] = AARC0397, Sabouraud dextrose agar, 32° C., 20 hours, read-out: MIC
[17] = GS136, Sabouraud dextrose agar, 32° C., 20 hours, read-out: MIC
[18] = NRRL13539, Sabouraud dextrose agar, 32° C., 20 hours, read-out: MIC
[19] = ATCC38247, Sabouraud dextrose agar, 32° C., 20 hours, read-out: MIC
[20] = AARC0353, Sabouraud dextrose agar, 32° C., 20 hours, read-out: MIC
[21] = ATCC15545, Sabouraud dextrose agar, 32° C., 20 hours, read-out: MIC
[22] = Mus musculus, NIH3T3, 48 hours, untreated NIH/3T3 K-ras = 100, read-out: Transformed foci percentage

SMILES	solubility in methanol and dimethylsulfoxide (Solubility)	MIC (A. fumigatus ATCC 26430; [10]) [mg/L]	MIC [1, 11] [mg/L]	MIC [2, 12] [mg/L]	MIC (Candida albicans 579A; [13]) [mg/L]	MIC (A. flavus NRRL 6541; [14]) [mg/L]	MIC [3, 15] [mg/L]	MIC [4, 16] [mg/L]	MIC [5, 17] [mg/L]	MIC [6, 18] [mg/L]	MIC [7, 19] [mg/L]	MIC (F. solani AARC 0353; [20]) [mg/L]	MIC [8, 21] [mg/L]	dose dependence of morphology reversion ([9]; 48 hours)	activity at 0.4 µg/mL [9, 22] [%]	morphology reversion of transformed cells ([9]; 48 hours)	other results
C[C@@H]1C[C@@H]([C@H](O)CC2CC(=O)NC(=O)C2)C(=O)[C@@H](C)C1 [Cycloheximide, cycloheximide, reference compound]	–	–	–	–	–	–	–	–	–	–	–	–	–	–	–	–	MIC (A. fumigatus ATCC 26430; ATCC26430, 20 h): 1.6 mg/L (≈ 5.69 µM); MIC ([1]; ATCC10231, 20 h): > 100 mg/L; MIC ([2]; NRRLY112, 20 h): 0.4 mg/L (≈ 1.42 µM); MIC (Candida albicans 579A; 20 h): > 100 mg/L; MIC (A. flavus NRRL 6541; NRRL6541, 20 h): 50 mg/L (≈ 178 µM); MIC ([3]; ATCC16404, 20 h): 1.6 mg/L (≈ 5.69 µM); MIC ([4]; AARC0397, 20 h): 0.8 mg/L (≈ 2.84 µM); MIC ([5]; GS136, 20 h): < 0.05 mg/L; MIC ([6]; NRRL13539, 20 h): 25 mg/L (≈ 88.9 µM); MIC ([7]; ATCC38247, 20 h): > 100 mg/L; MIC (F. solani AARC 0353; AARC0353, 20 h): 0.8 mg/L (≈ 2.84 µM); MIC ([8]; ATCC15545, 20 h): 0.4 mg/L (≈ 1.42 µM)
COC(C=CCCC=CC(=O)O)C(O)C(C)C=C(C)C(O)C(C)C(=O)CCCC1CC(=O)NC(=O)C1 (stereo not drawn) [Dorrigocin A]	readily soluble in methanol and dimethylsulfoxide	25 (≈ 49.2 µM)	> 100	> 100	> 100	> 100	25 (≈ 49.2 µM)	100 (≈ 197 µM)	> 100	> 100	> 100	25 (≈ 49.2 µM)	> 100	dose-dependent	26	caused transformed cells to revert to a morphology resembling that of normal cells	relative effectiveness in morphology reversion and reduction in the number of foci ([9]; Dorrigocin A compared with Dorrigocin B): more effective than Dorrigocin B; activity at 0.08 µg/mL ([9]; Mus musculus, NIH3T3, compound dose 0.08 μg/ml, 48 hours, untreated NIH/3T3 K-ras = 100, read-out: Transformed foci percentage): 76%; activity at 10 µg/mL ([9]; Mus musculus, NIH3T3, compound dose 10 μg/ml, 48 hours, untreated NIH/3T3 K-ras = 100, read-out: Transformed foci percentage): 22%
COC(C=CCCC=CC(=O)O)C(O)C(C)C(O)C(C)=CC(C)C(=O)CCCC1CC(=O)NC(=O)C1 (stereo not drawn) [Dorrigocin B]	readily soluble in methanol and dimethylsulfoxide	12.5 (≈ 24.6 µM)	> 100	> 100	> 100	100 (≈ 197 µM)	12.5 (≈ 24.6 µM)	50 (≈ 98.5 µM)	> 100	100 (≈ 197 µM)	> 100	25 (≈ 49.2 µM)	> 100	dose-dependent	96	caused transformed cells to revert to a morphology resembling that of normal cells	activity at 10 µg/mL ([9]; Mus musculus, NIH3T3, 48 h, read-out: Transformed foci percentage): 7%
